{"source": "patent US5984868A", "about": "“Device for measuring an absorbed dose of gas by skin and method therefor” (Institute of Occupational Safety and Health, Council of …, priority 1998, dated 1999)", "key": {"[1]": {"experiment": "Absorbed dose of vapor by skin of an arm in feedback-controlled exposure chamber, six voluntary subjects (Embodiment 1, 300±10 ppm)", "type": "in vivo, human", "settings": "human, topical or ocular, 300±10 ppm vapor; mean of six subjects; read-out: permeability constant, mean (converted)", "procedure": "(§1) The injection rate of the injection system was checked with a five-digit balance (Mettler model AT-201, Switzerland). 2-methoxy ethanol was continuously injected into a glass bottle, and six continuous injections were measured to obtain the average value and the coefficient of variation. Each continuous injection had 10 injection does. An average injection dose was obtained from the […] injection doses. The average dose of each ejection was then used as a computation base for checking the injection dose of the system. After each human experiment, the above weight calibration was used again to check the average injection dose of each ejection so as to obtain the relative percentage error of the average injection doses before and after the experiment. The flash evaporation chamber is a small glass chamber which is embraced by a heating strap and a temperature control device, as shown in FIG. 1. The flash evaporation chamber was used to accelerate the evaporation of the liquid 2-methoxy ethanol and to shorten the reaction time of the system. When the evaporation of the liquid was slower than the skin absorption rate, it will cause the injection system to continuously inject the 2-methoxy ethanol, and thus result in an excess absorption dose of the vapor by the skin of the human under test. The flash evaporation chamber of the present invention can avoid this problem by providing with the heating strap.\n(§2) The measurement of the absorbed dose of vapor by skin was carried out respectively with each of six voluntary subjects whose personal data are shown in the following Table 3:\n(§3) The method of the first embodiment is illustrated in FIG. 1 in which the arm of a subject is shown being put into an exposure chamber. The exposure chamber contains 2-methoxy ethanol having a concentration of 300±10 ppm, with the relative humidity and the temperature of the exposure chamber being respectively 80±2%, and 25±1° C. For details of the control of the first embodiment, please refer to the Preparatory Embodiments described above.\n(§4) According, m5 can be justifiably ignored."}, "[2]": {"test_system": "skin", "experiment": "Absorbed dose of vapor by skin of an arm in feedback-controlled exposure chamber, six voluntary subjects (Embodiment 1, 300±10 ppm)", "type": "in vivo, human", "procedure": "as §1, §2, §3, §4"}, "[3]": {"experiment": "2-methoxy ethanol dose in the subject's exhalation", "type": "in vivo", "settings": "human, exhaled air, topical or ocular; of the total absorbed dose; read-out: 2-methoxy ethanol doses in the subject's exhalation, share of total absorbed dose", "text": "as §4"}, "[4]": {"settings": "Johanson et al, 1988; cited from earlier work"}, "[5]": {"settings": "general statement, no test shown; cited from earlier work"}, "[6]": {"test_system": "skin", "experiment": "Absorbed dose of vapor by skin in exposure chamber (Embodiment 2, 25±1.5 ppm)", "settings": "25±1.5 ppm vapor", "source_text": "The test concentration of the hazardous gas is 25 ppm in compliance with the allowable limit set forth by OSHA. In light of the lack of an exposure chamber large enough to accommodate a human body in its entirety, a small exposure chamber was used to investigate the absorption of the hazardous gas by the skin of an arm. On the basis of the result of the hand, the absorption of the hazardous gas by the skin of the whole body was estimated. […] The hand and the arm of a worker are often exposed on the job and are therefore used as subjects of the investigation. It is also assumed that the gas absorption rate of the skin of a hand is about equal to the average value of the gas absorption rate of the skin of the whole body. […] As a result, an absorbed dose of 300 ppm by a hand is about corresponding to an absorbed dose of 15 ppm by a whole body (300 ppm*1,250 cm^2 /18,000 cm^2 * 0.75). […] The digital signals were then transmitted to a computer (Pentium 100). When the concentration signal of the hazardous gas contained in the exposure chamber received by the computer was lower than the lower limit of 23.5 ppm, an instruction was generated by the software program and transmitted to activate the automatic injection system to raise quickly the concentration up to the upper limit of 26.5 ppm. […] Throughout the experiment of the present invention, a series of injected doses of the hazardous gas were obtained. The sum of the injected doses was used to compute the absorbed dose of the hazardous gas by the skin.\nThe rotation speeds of the two fans were adjusted to obtain desired wind velocities and flow streams by using an adjustable resistor. […] When the hand was extended into the exposure chamber, the contact portions of the hand and the exposure chamber were covered with two layers of aluminum foil in conjunction with a transparent plastic bag therebetween. In addition, the upper arm was banded with the 3M bandage to avert the gas leak. Located respectively in the front, the middle and the rear of the exposure chamber was a detector for monitoring the uniformity of the gas concentration distribution and the change in the gas concentration throughout the experiment.\nIt must be noted here that m1 is equal to the post-calibration injection rate multiplied by the accumulated injection times. […] This implies that only m1 and m2 must be measured with precision."}, "[7]": {"settings": "300±10 ppm vapor, 80±2% RH, 25±1° C., arm, individual subjects 1-6"}, "[8]": {"settings": "300±10 ppm vapor, mean of six subjects"}}, "note": "Several values for one entry are separate records, joined by “and”; a condition that tells them apart may be missing. Equal entries are not always repeated.", "data": [{"smiles": "COCCO", "note": "[2-methoxy ethanol]", "values": [{"measurement": "Papp", "setting": "[1]", "value": 3890, "unit": "×10⁻⁶ cm/s"}, {"measurement": "m1 (accumulated doses added to stabilize the concentration in the exposure chamber)", "setting": "[2]; [7]", "value": "430.00 mg and 296.88 mg and 172.46 mg and 285.11 mg and 350.67 mg and 394.56 mg"}, {"measurement": "m2 (doses captured by the condensation dehumidifier)", "setting": "[2]; [7]", "value": "328.50 mg and 222.75 mg and 137.75 mg and 210.00 mg and 301.00 mg and 304.75 mg"}, {"measurement": "m3 (gas residual left on the exposed arm after termination of exposure)", "setting": "[2]; [7]", "value": "0.35 mg and 0.58 mg and 0.66 mg and 0.63 mg and 0.16 mg"}, {"measurement": "permeability constant", "setting": "[2]; [7]", "value": "5575 ×10⁻⁶ cm/s and 4600 ×10⁻⁶ cm/s and 1650 ×10⁻⁶ cm/s and 4508 ×10⁻⁶ cm/s and 2540 ×10⁻⁶ cm/s and 4469 ×10⁻⁶ cm/s"}, {"measurement": "skin absorption rate", "setting": "[2]; [7]", "value": "18.72 μg/cm^2 /h and 15.45 μg/cm^2 /h and 5.55 μg/cm^2 /h and 15.14 μg/cm^2 /h and 8.52 μg/cm^2 /h and 15.01 μg/cm^2 /h"}, {"measurement": "Δm (absorbed dose by skin, m1-m2-m3-m4)", "setting": "[2]; [7]", "value": "96.11 mg and 68.51 mg and 29.01 mg and 69.44 mg and 44.04 mg and 84.61 mg"}, {"measurement": "skin absorption rate, mean", "setting": "[2]; [8]", "value": 13.07, "unit": "μg/cm^2 /h"}, {"measurement": "Δm (absorbed dose by skin), mean", "setting": "[2]; [8]", "value": 65.29, "unit": "mg"}, {"measurement": "m3 and m4, respectively, relative to the dose of m1", "setting": "[2]; of the dose of m1", "value": "less than 1%"}, {"measurement": "dose excreted", "setting": "[3]", "value": "< 0.4", "unit": "%"}, {"measurement": "distribution coefficient of the human blood relative to air", "setting": "[4]", "value": "32,836"}, {"measurement": "water solubility", "setting": "[5]", "value": "excellent"}, {"measurement": "m1 (accumulated doses added to the exposure chamber)", "setting": "[6]", "value": 34.5, "unit": "mg"}, {"measurement": "m2 (doses captured by the condensation dehumidifier)", "setting": "[6]", "value": 27.1, "unit": "mg"}, {"measurement": "m3 (gas residual left on the exposed arm)", "setting": "[6]", "value": 0.04, "unit": "mg"}, {"measurement": "m5 (doses contained in the subject's exhalations)", "setting": "[6]", "value": "trace"}]}]}
